# Key:
# Staphylococcus aureus [1] = test: Antibacterial activity against methicillin-resistant Staphylococcus aureus NRS70 by microbroth dilution method; assay type: functional
# [2] = test system: Mycobacterium tuberculosis; test: Antitubercular activity against Mycobacterium tuberculosis H37Rv by microbroth dilution method; assay type: functional
# Bacillus subtilis = test: Antibacterial activity against Bacillus subtilis ATCC 23857 by microbroth dilution method; assay type: functional
# Streptococcus pneumoniae = test: Antibacterial activity against Streptococcus pneumoniae R6 by microbroth dilution method; assay type: functional
# Escherichia coli [3] = test: Antibacterial activity against Escherichia coli K-12 by microbroth dilution method; assay type: functional
# Enterococcus faecalis = test: Antibacterial activity against Enterococcus faecalis ATCC 33186 by microbroth dilution method; assay type: functional
# Proteus vulgaris = test: Antibacterial activity against Proteus vulgaris ATCC 33420 by microbroth dilution method; assay type: functional
# Pseudomonas aeruginosa = test: Antibacterial activity against Pseudomonas aeruginosa PAO1 by microbroth dilution method; assay type: functional
# Streptococcus pyogenes = test: Antibacterial activity against Streptococcus pyogenes ATCC 700294 by microbroth dilution method; assay type: functional
# Klebsiella pneumoniae = test: Antibacterial activity against Klebsiella pneumoniae ATCC 33495 by microbroth dilution method; assay type: functional
# Bacillus anthracis = test: Antibacterial activity against Bacillus anthracis Sterne 34F2 by microbroth dilution method; assay type: functional
# Proteus mirabilis = test: Antibacterial activity against Proteus mirabilis ATCC 25933 by microbroth dilution method; assay type: functional
# Acinetobacter baumannii = test: Antibacterial activity against Acinetobacter baumannii ATCC 19606 by microbroth dilution method; assay type: functional, ATCC 19606 = CIP 70.34 = JCM 6841
# Escherichia coli [4] = test: Antibacterial activity against Escherichia coli harboring TolC deletion mutant by microbroth dilution method; assay type: functional
# Burkholderia cepacia = test: Antibacterial activity against Burkholderia cepacia ATCC 25416 by microbroth dilution method; assay type: functional
# Staphylococcus aureus [5] = test: Antibacterial activity against methicillin-sensitive Staphylococcus aureus ATCC 29213 by microbroth dilution method; assay type: functional
# [6] = Staphylococcus aureus, NRS70, read-out: MIC
# [7] = Mycobacterium tuberculosis, H37Rv, read-out: MIC
# [8] = Bacillus subtilis, ATCC 23857, read-out: MIC
# [9] = Streptococcus pneumoniae, R6, read-out: MIC
# [10] = Enterococcus faecalis, ATCC 33186, read-out: MIC
# [11] = Streptococcus pyogenes, ATCC 700294, read-out: MIC
# [12] = Bacillus anthracis, Sterne 34F2, read-out: MIC
# [13] = Acinetobacter baumannii, ATCC 19606 = CIP 70.34 = JCM 6841, read-out: MIC
# [14] = Escherichia coli, read-out: MIC
# [15] = Staphylococcus aureus, ATCC 29213, read-out: MIC
Compound,MIC (Staphylococcus aureus [1]; [6]) [µg/mL],"MIC [2, 7] [µg/mL]",MIC (Bacillus subtilis; [8]) [µg/mL],MIC (Streptococcus pneumoniae; [9]) [µg/mL],MIC (Escherichia coli [3]) [µg/mL],MIC (Enterococcus faecalis; [10]) [µg/mL],MIC (Proteus vulgaris) [µg/mL],MIC (Pseudomonas aeruginosa) [µg/mL],MIC (Streptococcus pyogenes; [11]) [µg/mL],MIC (Klebsiella pneumoniae) [µg/mL],MIC (Bacillus anthracis; [12]) [µg/mL],MIC (Proteus mirabilis) [µg/mL],MIC (Acinetobacter baumannii; [13]) [µg/mL],MIC (Escherichia coli [4]; [14]) [µg/mL],MIC (Burkholderia cepacia) [µg/mL],MIC (Staphylococcus aureus [5]; [15]) [µg/mL],other results
COc1ccc2cc1Oc1cccc(c1)CCC(NCCc1ccc(F)cc1)CC2 (centres undefined),25,25,25,50,> 100,50,> 100,> 100,50,> 100,50,> 100,50,12.5,> 100,25,
COc1ccc2cc1Oc1cc(ccc1OC)CCC(OS(C)(=O)=O)CCCC2 (centres undefined),> 100,> 100,> 100,> 100,> 100,> 100,> 100,> 100,> 100,> 100,> 100,> 100,> 100,> 100,> 100,> 100,
COc1ccc2cc1Oc1cc(ccc1OC)CCC(N[C@H]1CCCc3ccccc31)CCCC2 (stereo in doubt; 28),,,,,,,,,,,,,,,,,MIC (Staphylococcus aureus [1]): >100 µg/mL; MIC (Bacillus subtilis): >100 µg/mL; MIC (Streptococcus pneumoniae): >100 µg/mL; MIC (Enterococcus faecalis): >100 µg/mL; MIC (Streptococcus pyogenes): >100 µg/mL; MIC (Bacillus anthracis): >100 µg/mL; MIC (Escherichia coli [4]): 25 µg/mL; MIC (Staphylococcus aureus [5]): >100 µg/mL
COc1ccc2cc1Oc1cc(ccc1OC)CCC(NCCc1ccccc1F)CCCC2 (centres undefined),25,25,12.5,50,> 100,25,> 100,> 100,50,> 100,50,> 100,100,25,> 100,50,
COc1ccc2cc1Oc1cc(ccc1OC)CCC(N1CCN(C)CC1)CCCC2 (centres undefined),50,50,50,100,> 100,100,> 100,> 100,> 100,> 100,100,> 100,100,50,> 100,100,
COc1ccc2cc1Oc1cc(ccc1OC)CCC(N[C@@H]1CCCc3ccccc31)CCCC2 (stereo in doubt; 26),,,,,,,,,,,,,,,,,MIC [2]: 50 µg/mL; MIC (Bacillus subtilis): 25 µg/mL; MIC (Streptococcus pneumoniae): 50 µg/mL; MIC (Acinetobacter baumannii): >100 µg/mL; MIC (Escherichia coli [4]): 25 µg/mL
COc1ccc2cc1Oc1cc(ccc1OC)CCC(NCCc1ccc(F)cc1)CC2,100,50,50,100,> 100,100,> 100,> 100,100,> 100,100,> 100,100,50,> 100,50,
COc1ccc2cc1Oc1cc(ccc1OC)CCC(N[C@H]1CCCc3ccccc31)CCCC2 (stereo in doubt; 27),> 100,,> 100,> 100,> 100,> 100,> 100,> 100,> 100,> 100,> 100,> 100,> 100,,> 100,,MIC (Escherichia coli [4]): >100 µg/mL
COc1ccc2cc1Oc1cc(ccc1OC)CCC(NCCc1ccc(O)cc1)CCCC2 (centres undefined),100,100,50,100,> 100,100,> 100,> 100,100,> 100,50,> 100,> 100,100,> 100,> 100,
COc1ccc2cc1Oc1cc(ccc1OC)CCC(NC(=O)NCCc1ccc(F)cc1)CCCC2 (centres undefined),> 100,> 100,> 100,> 100,> 100,> 100,> 100,> 100,> 100,> 100,> 100,> 100,> 100,> 100,> 100,> 100,
COc1ccc2cc1Oc1cc(ccc1OC)CCC(NC(=O)CCc1ccccc1)CCCC2 (centres undefined),> 100,> 100,> 100,> 100,> 100,> 100,> 100,> 100,> 100,> 100,> 100,> 100,> 100,> 100,> 100,> 100,
COc1ccc2cc1Oc1cc(ccc1OC)CCC(N)CCCC2 (centres undefined),200,200,100,200,200,200,> 100,> 100,200,> 100,100,> 100,200,100,> 100,200,
COc1ccc2cc1Oc1cc(ccc1OC)CCC(NCc1ccccc1)CCCC2 (centres undefined),,12.5 to 50,,,,,,,,,,,,,,,
CCNC1CCCCc2ccc(OC)c(c2)Oc2cc(ccc2OC)CC1 (centres undefined),> 100,100,> 100,> 100,> 100,> 100,> 100,> 100,> 100,> 100,> 100,> 100,> 100,> 100,> 100,> 100,
COc1ccc2cc1Oc1cc(ccc1OC)CCC(NCCCc1ccccc1)CCCC2 (centres undefined),25,50,25,50,> 100,25,> 100,> 100,50,> 100,50,> 100,50,12.5,> 100,25,
COc1ccc2cc1Oc1cc(ccc1OC)CCC(NCc1ccc(C(F)(F)F)cc1)CCCC2 (centres undefined),12.5,25,12.5,> 100,> 100,> 100,> 100,> 100,50,> 100,12.5,> 100,> 100,6.25,> 100,> 100,
COc1ccc2cc1Oc1cc(ccc1OC)CCC(N[C@@H]1CCCc3ccccc31)CCCC2 (stereo in doubt; 25),,> 100,,,> 100,,> 100,> 100,,> 100,,> 100,,,> 100,> 100,MIC (Bacillus subtilis): 6.25 µg/mL; MIC (Escherichia coli [4]): 100 µg/mL
COc1ccc2cc1Oc1cccc(c1)CCCCC(NCCc1ccc(F)cc1)CC2 (centres undefined),12.5,25,6.25,50,> 100,12.5,> 100,> 100,50,> 100,25,> 100,50,12.5,> 100,25,
COc1ccc2cc1Oc1cc(ccc1OC)CCC(N(CCO)CCO)CCCC2 (centres undefined),> 100,> 100,> 100,> 100,> 100,> 100,> 100,> 100,> 100,> 100,> 100,> 100,> 100,> 100,> 100,> 100,
COc1ccc2cc1Oc1cc(ccc1OC)CCC(NCCc1ccccc1)CCCC2 (centres undefined),,12.5 to 50,,,,,,,,,,,,,,,
NNC(=O)c1ccncc1 [ISONIAZID],,0.03,,,,,,,,,,,,,,,
O=C(N[C@H](CO)[C@H](O)c1ccc([N+](=O)[O-])cc1)C(Cl)Cl [CHLORAMPHENICOL],3.12,,6.25,1.56,6.25,,> 100,> 100,3.12,> 100,3.12,> 100,50,0.78,> 100,6.25,
CCCCCCNC1CCCCc2ccc(OC)c(c2)Oc2cc(ccc2OC)CC1 (centres undefined),,12.5 to 50,,,,,,,,,,,,,,,
